Values after ≈ are worked out from the molar mass of the structure shown.
Key:
[1] = test system: A. baumannii CDC-0036; test: microbe, parasite or virus in culture; assay type: cell-based; settings: Acinetobacter baumannii, CDC0036, read-out: MIC, A. baumannii CDC-0036
[2] = target: T1, PBP3 from Pseudomonas aeruginosa (PAO1) (Pseudomonas aeruginosa, UniProt G3XD46); test: Bocillin-FL fluorescence polarization competition binding, P. aeruginosa PBP3; settings: Binding affinity to P. aeruginosa PBP3; fluorescence polarization competition binding assay using Bocillin-FL; read-out: P. aeruginosa PBP3 Potency
T1 construct: made in house
T1 sequence (G3XD46 whole entry): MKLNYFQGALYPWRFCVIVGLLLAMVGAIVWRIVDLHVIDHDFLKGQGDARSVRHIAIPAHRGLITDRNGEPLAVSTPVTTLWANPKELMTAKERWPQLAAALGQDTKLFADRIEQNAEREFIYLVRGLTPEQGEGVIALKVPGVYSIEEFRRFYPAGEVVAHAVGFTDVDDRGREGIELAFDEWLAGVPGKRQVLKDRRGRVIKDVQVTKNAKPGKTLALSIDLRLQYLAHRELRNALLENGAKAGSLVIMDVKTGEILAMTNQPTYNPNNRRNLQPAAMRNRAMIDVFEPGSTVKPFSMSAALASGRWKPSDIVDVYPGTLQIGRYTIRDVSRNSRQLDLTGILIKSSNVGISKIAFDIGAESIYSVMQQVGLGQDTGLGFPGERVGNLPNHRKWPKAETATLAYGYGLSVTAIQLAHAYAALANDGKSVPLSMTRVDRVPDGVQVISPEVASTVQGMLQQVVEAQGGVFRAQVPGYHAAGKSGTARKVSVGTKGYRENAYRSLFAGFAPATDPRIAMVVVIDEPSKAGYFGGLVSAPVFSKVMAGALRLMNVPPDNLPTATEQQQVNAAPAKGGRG
Outline: (§1)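 Purified PBP was preincubated with inhibitor (E. coli PBP3 1.5 μM, 30 min; P. aeruginosa PBP3 0.75 μM, A. baumannii PBP3 0.2 μM and PBP1a 1 μM, 15 min), then Bocillin-FL (0.1 μM; 0.05 μM for PBP1a) added and FP read up to 60 min. EC50 = 50% loss of bound probe.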

[3] = test system: P. aeruginosa ATCC 27853; test: microbe, parasite or virus in culture; assay type: cell-based; settings: Pseudomonas aeruginosa, ATCC27853, read-out: Minimum inhibitory concentration, P. aeruginosa ATCC 27853
[4] = test system: N. gonorrhoeae MS11; test: Liquid broth MIC in Fastidious broth; settings: Neisseria gonorrhoeae, MS11, read-out: Minimum Inhibitory Concentration, MS11
[5] = test system: N. gonorrhoeae CDC-0197; test: Liquid broth MIC in Fastidious broth; settings: Neisseria gonorrhoeae, CDC0197, read-out: Minimum Inhibitory Concentration, CDC-0197
[6] = test system: N. gonorrhoeae WHO G; test: Liquid broth MIC in Fastidious broth; settings: Neisseria gonorrhoeae, read-out: Minimum Inhibitory Concentration, WHO G
[7] = target: T2, PBP3 from Escherichia coli (K-12) (Escherichia coli, UniProt P0AD68); test: Bocillin-FL fluorescence polarization competition binding, E. coli PBP3
T2 construct: made in house
T2 sequence (P0AD68 1-577): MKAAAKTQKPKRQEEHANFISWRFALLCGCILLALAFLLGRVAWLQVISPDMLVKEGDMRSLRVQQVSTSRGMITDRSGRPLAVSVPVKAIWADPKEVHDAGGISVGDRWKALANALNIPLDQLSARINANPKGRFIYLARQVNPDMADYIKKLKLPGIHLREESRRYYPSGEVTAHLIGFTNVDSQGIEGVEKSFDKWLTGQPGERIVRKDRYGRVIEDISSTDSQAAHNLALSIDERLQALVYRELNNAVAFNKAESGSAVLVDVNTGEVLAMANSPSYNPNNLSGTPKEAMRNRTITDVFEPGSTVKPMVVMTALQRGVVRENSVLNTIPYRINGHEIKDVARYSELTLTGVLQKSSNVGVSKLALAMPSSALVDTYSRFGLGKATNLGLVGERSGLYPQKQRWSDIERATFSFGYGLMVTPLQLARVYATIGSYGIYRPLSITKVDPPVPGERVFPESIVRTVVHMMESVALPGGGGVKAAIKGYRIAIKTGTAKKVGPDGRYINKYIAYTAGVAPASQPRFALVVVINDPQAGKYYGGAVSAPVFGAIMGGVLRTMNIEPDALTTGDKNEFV
Outline: as §1

[8] = target: T3, PBP3 from Acinetobacter baumannii (ATCC 19606) (Acinetobacter baumannii, UniProt A0ABX6CK25); test: Bocillin-FL fluorescence polarization competition binding, A. baumannii PBP3; settings: fluorescence polarization competition binding assay using Bocillin-FL; read-out: A. baumannii PBP3 Potency
T3 sequence (A0ABX6CK25 64-610): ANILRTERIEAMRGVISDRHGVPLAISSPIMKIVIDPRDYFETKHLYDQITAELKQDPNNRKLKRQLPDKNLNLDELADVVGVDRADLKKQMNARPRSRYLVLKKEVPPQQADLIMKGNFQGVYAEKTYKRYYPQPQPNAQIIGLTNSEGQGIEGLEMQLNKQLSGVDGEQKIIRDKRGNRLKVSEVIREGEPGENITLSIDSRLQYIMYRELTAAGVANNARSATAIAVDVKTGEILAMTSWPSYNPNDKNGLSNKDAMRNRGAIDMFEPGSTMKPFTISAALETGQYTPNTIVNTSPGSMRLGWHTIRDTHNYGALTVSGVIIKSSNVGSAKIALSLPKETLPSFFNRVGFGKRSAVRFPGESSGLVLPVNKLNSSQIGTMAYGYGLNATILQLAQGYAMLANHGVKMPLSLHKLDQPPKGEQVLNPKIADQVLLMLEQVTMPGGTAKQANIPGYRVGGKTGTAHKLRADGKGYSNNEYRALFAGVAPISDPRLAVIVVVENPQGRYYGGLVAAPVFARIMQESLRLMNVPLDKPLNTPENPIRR
Outline: as §1

[9] = test system: N. gonorrhoeae WHO M; test: Liquid broth MIC in Fastidious broth; settings: Neisseria gonorrhoeae, read-out: Minimum Inhibitory Concentration, WHO M

SMILES | MIC [1] [µg/mL] | IC50 [2] [µM] | MIC [3] [µg/mL] | MIC [4] [µg/mL] | MIC [5] [µg/mL] | MIC [6] [µg/mL] | EC50 [7] [µM] | IC50 [8] [µM] | MIC [9] [µg/mL]
O=C(NCCS(=O)(=O)N1CCN(C(=O)NC(C(=O)N[C@H]2Cc3ccc(F)c(C(=O)O)c3OB2O)c2cc(F)c(O)c(O)c2Cl)C1=O)c1ccncc1 (stereo partly drawn) [Example 288, (3R)-3-(2-(2-chloro-5-fluoro-3,4-dihydroxyphenyl)-2-(3-((2-(isonicotinamido)ethyl)sulfonyl)-2-oxoimidazolidine-1-carboxamido)acetamido)-7-fluoro-2-hydroxy-3,4-dihydro-2H-benzo[e][1,2]oxaborinine-8-carboxylic acid] | 2 to 4 (≈ 2.61 to 5.22 µM) | < 10 | 2 to 4 (≈ 2.61 to 5.22 µM) | 4 to 8 (≈ 5.22 to 10.4 µM) | 16 to 32 (≈ 20.9 to 41.7 µM) | 4 to 8 (≈ 5.22 to 10.4 µM) | < 10 | < 10 | 4 to 8 (≈ 5.22 to 10.4 µM)
O=C(NCCCN1CCN(C(=O)N[C@@H](C(=O)N[C@H]2Cc3ccc(F)c(C(=O)O)c3OB2O)c2cc(F)c(O)c(O)c2Cl)C(=O)C1=O)c1ccncc1 [Example 294, (R)-3-((R)-2-(2-chloro-5-fluoro-3,4-dihydroxyphenyl)-2-(4-(3-(isonicotinamido)propyl)-2,3-dioxopiperazine-1-carboxamido)acetamido)-7-fluoro-2-hydroxy-3,4-dihydro-2H-benzo[e][1,2]oxaborinine-8-carboxylic acid] | < 1 | < 10 | < 1 | 16 to 32 (≈ 21.5 to 43 µM) | > 64 | 16 to 32 (≈ 21.5 to 43 µM) | < 10 | < 10 | 16 to 32 (≈ 21.5 to 43 µM)
O=C(NCCN1CCN(C(=O)N[C@@H](C(=O)N[C@H]2Cc3ccc(F)c(C(=O)O)c3OB2O)c2cc(F)c(O)c(O)c2Cl)C1=O)Nc1ccc(O)cc1 [Example 279, (R)-3-((R)-2-(2-chloro-5-fluoro-3,4-dihydroxyphenyl)-2-(3-(2-(3-(4-hydroxyphenyl)ureido)ethyl)-2-oxoimidazolidine-1-carboxamido)acetamido)-7-fluoro-2-hydroxy-3,4-dihydro-2H-benzo[e][1,2]oxaborinine-8-carboxylic acid] | < 1 | < 10 | 2 to 4 (≈ 2.73 to 5.46 µM) | 4 to 8 (≈ 5.46 to 10.9 µM) | 4 to 8 (≈ 5.46 to 10.9 µM) | 4 to 8 (≈ 5.46 to 10.9 µM) | < 10 | < 10 | 1 to 2 (≈ 1.36 to 2.73 µM)
O=C(NCCCN1CCN(C(=O)N[C@H](C(=O)N[C@H]2Cc3ccc(F)c(C(=O)O)c3OB2O)c2cc(F)c(O)c(O)c2Cl)C(=O)C1=O)c1cccc(O)c1Cl [Example 302, (R)-3-((S)-2-(4-(3-(2-chloro-3-hydroxybenzamido)propyl)-2,3-dioxopiperazine-1-carboxamido)-2-(2-chloro-5-fluoro-3,4-dihydroxyphenyl)acetamido)-7-fluoro-2-hydroxy-3,4-dihydro-2H-benzo[e][1,2]oxaborinine-8-carboxylic acid] | > 128 | 50 to 250 | 32 to 64 (≈ 40.3 to 80.6 µM) | > 64 | > 64 | > 64 | > 250 | 50 to 250 | > 64
O=C(NCCS(=O)(=O)N1CCN(C(=O)N[C@@H](C(=O)N[C@H]2Cc3ccc(F)c(C(=O)O)c3OB2O)c2cc(F)c(O)c(O)c2Cl)C1=O)c1ccc(O)cc1 [Example 287, (R)-3-((R)-2-(2-chloro-5-fluoro-3,4-dihydroxyphenyl)-2-(3-((2-(4-hydroxybenzamido)ethyl)sulfonyl)-2-oxoimidazolidine-1-carboxamido)acetamido)-7-fluoro-2-hydroxy-3,4-dihydro-2H-benzo[e][1,2]oxaborinine-8-carboxylic acid] | 2 to 4 (≈ 2.56 to 5.12 µM) | < 10 | 2 to 4 (≈ 2.56 to 5.12 µM) | 4 to 8 (≈ 5.12 to 10.2 µM) | 16 to 32 (≈ 20.5 to 40.9 µM) | 4 to 8 (≈ 5.12 to 10.2 µM) | < 10 | < 10 | 4 to 8 (≈ 5.12 to 10.2 µM)
O=C(NCCCN1CCN(C(=O)NC(C(=O)N[C@H]2Cc3ccc(F)c(C(=O)O)c3OB2O)c2cc(F)c(O)c(O)c2Cl)C(=O)C1=O)c1ccc(O)c(F)c1F (stereo partly drawn) [Example 306, (3R)-3-(2-(2-chloro-5-fluoro-3,4-dihydroxyphenyl)-2-(4-(3-(2,3-difluoro-4-hydroxybenzamido)propyl)-2,3-dioxopiperazine-1-carboxamido)acetamido)-7-fluoro-2-hydroxy-3,4-dihydro-2H-benzo[e][1,2]oxaborinine-8-carboxylic acid] | 2 to 4 (≈ 2.51 to 5.03 µM) | < 10 | 2 to 4 (≈ 2.51 to 5.03 µM) | 16 to 32 (≈ 20.1 to 40.2 µM) | > 64 | 16 to 32 (≈ 20.1 to 40.2 µM) | < 10 | < 10 | 16 to 32 (≈ 20.1 to 40.2 µM)
O=C(O)c1c(F)ccc2c1OB(O)[C@@H](NC(=O)C(NC(=O)N1CCN(Cc3ccc(O)c(O)c3Cl)C(=O)C1=O)c1cc(F)c(O)c(O)c1Cl)C2 (stereo partly drawn) [Example 292, (3R)-3-(2-(4-(2-chloro-3,4-dihydroxybenzyl)-2,3-dioxopiperazine-1-carboxamido)-2-(2-chloro-5-fluoro-3,4-dihydroxyphenyl)acetamido)-7-fluoro-2-hydroxy-3,4-dihydro-2H-benzo[e][1,2]oxaborinine-8-carboxylic acid] | > 128 | < 10 | < 1 | > 64 | > 64 | > 64 | < 10 | < 10 | > 64
O=C(NCCCS(=O)(=O)N1CCN(C(=O)NC(C(=O)N[C@H]2Cc3ccc(F)c(C(=O)O)c3OB2O)c2cc(F)c(O)c(O)c2Cl)C1=O)Nc1cccc(O)c1 (stereo partly drawn) [Example 277, (3R)-3-(2-(2-chloro-5-fluoro-3,4-dihydroxyphenyl)-2-(3-((3-(3-(3-hydroxyphenyl)ureido)propyl)sulfonyl)-2-oxoimidazolidine-1-carboxamido)acetamido)-7-fluoro-2-hydroxy-3,4-dihydro-2H-benzo[e][1,2]oxaborinine-8-carboxylic acid] | 2 to 4 (≈ 2.47 to 4.93 µM) | < 10 | 2 to 4 (≈ 2.47 to 4.93 µM) | 16 to 32 (≈ 19.7 to 39.5 µM) | 16 to 32 (≈ 19.7 to 39.5 µM) | 16 to 32 (≈ 19.7 to 39.5 µM) | < 10 | < 10 | 16 to 32 (≈ 19.7 to 39.5 µM)
O=C(O)c1c(F)ccc2c1OB(O)[C@@H](NC(=O)C(NC(=O)N1CCN(C3CCN(C(=O)c4cccc(O)c4)CC3)C(=O)C1=O)c1cc(F)c(O)c(O)c1Cl)C2 (stereo partly drawn) [Example 293, (3R)-3-(2-(2-chloro-5-fluoro-3,4-dihydroxyphenyl)-2-(4-(1-(3-hydroxybenzoyl)piperidin-4-yl)-2,3-dioxopiperazine-1-carboxamido)acetamido)-7-fluoro-2-hydroxy-3,4-dihydro-2H-benzo[e][1,2]oxaborinine-8-carboxylic acid] | < 1 | < 10 | 2 to 4 (≈ 2.54 to 5.09 µM) | 16 to 32 (≈ 20.4 to 40.7 µM) | > 64 | 16 to 32 (≈ 20.4 to 40.7 µM) | < 10 | < 10 | 16 to 32 (≈ 20.4 to 40.7 µM)
O=C(NCCCN1CCN(C(=O)NC(C(=O)N[C@H]2Cc3ccc(F)c(C(=O)O)c3OB2O)c2cc(F)c(O)c(O)c2Cl)C(=O)C1=O)c1ccncc1Cl (stereo partly drawn) [Example 295, (3R)-3-(2-(2-chloro-5-fluoro-3,4-dihydroxyphenyl)-2-(4-(3-(3-chloroisonicotinamido)propyl)-2,3-dioxopiperazine-1-carboxamido)acetamido)-7-fluoro-2-hydroxy-3,4-dihydro-2H-benzo[e][1,2]oxaborinine-8-carboxylic acid] | 2 to 4 (≈ 2.57 to 5.13 µM) | < 10 | 2 to 4 (≈ 2.57 to 5.13 µM) | 16 to 32 (≈ 20.5 to 41.1 µM) | > 64 | 16 to 32 (≈ 20.5 to 41.1 µM) | < 10 | < 10 | 16 to 32 (≈ 20.5 to 41.1 µM)
O=C(NCCCN1CCN(C(=O)NC(C(=O)N[C@H]2Cc3ccc(F)c(C(=O)O)c3OB2O)c2cc(F)c(O)c(O)c2Cl)C(=O)C1=O)c1ccc(O)cc1O (stereo partly drawn) [Example 307, (3R)-3-(2-(2-chloro-5-fluoro-3,4-dihydroxyphenyl)-2-(4-(3-(2,4-dihydroxybenzamido)propyl)-2,3-dioxopiperazine-1-carboxamido)acetamido)-7-fluoro-2-hydroxy-3,4-dihydro-2H-benzo[e][1,2]oxaborinine-8-carboxylic acid] | 2 to 4 (≈ 2.58 to 5.16 µM) | < 10 | 2 to 4 (≈ 2.58 to 5.16 µM) | 16 to 32 (≈ 20.6 to 41.2 µM) | > 64 | 16 to 32 (≈ 20.6 to 41.2 µM) | < 10 | < 10 | 16 to 32 (≈ 20.6 to 41.2 µM)

Reference: patent US20240270762A1, “PENICILLIN-BINDING PROTEIN INHIBITORS” (priority 2021, published 2024)
